Assay results taken from US6171786A, “Methods for preventing multidrug resistance in cancer cells” (priority 1996, dated 2001).
“Also recorded” adds a separate entry of the source. Where two headings read alike, the source gives them in different places.

Tests used:
tumor [1] = details: cited from earlier work
tumor [2] = details: nude mice; Meyer et al., 1989; cited from earlier work
MDR1 expression [3] = experiment: Inhibition of cytotoxic drug-induced MDR1 expression by protein kinase inhibitors (cDNA-PCR)
Protocol: (§1) Cells were plated in 6-well Falcon tissue culture plates at 3,300 cells per well, and incubated in the appropriate concentrations of drugs. Each of the protein kinase inhibitors to be tested were added at the appropriate final concentration 45 minutes prior to MDR1 induction by the addition of Ara-C or TPA, with the exception of herbimycin A, which was added 12 hours prior to Ara-C or TPA, and tyrphostins A25 and B46, which were each added 16 hours prior to MDR1 induction by the addition of Ara-C or TPA. Cells were incubated overnight (TPA) or for 10 hours (Ara-C) at 37° C./ 5% CO2 after the addition of the MDR1 inducing agents before harvesting for cDNA-PCR analysis.
In addition, the analysis of certain drugs imposed added requirements. For experiments using calphostin C, cells were incubated under direct white light illumination. For experiments using D,L-threo-sphingosine, the cell culture medium was pre-treated with the appropriate concentration of the drug for one hour at 37° C. with continuous gentle mixing. After this pretreatment, cells were resuspended in media supplemented with drug and incubated for 45 minutes as described above.
To further evaluate the capacity of protein kinase inhibitors to suppress MDR1 induction by cytotoxic drugs and PKC agonists, H-9 human T-cell leukemia cells were used in cDNA-PCR assays to examine induced MDR1 mRNA expression levels in the presence of protein kinase inhibitors.

PKC = details: in words; cited from earlier work
[4] = system: MDR1 expression (P-glycoprotein); experiment: MDR1/P-glycoprotein expression in human cells treated with TPA, DOG, other agents (Rh123 accumulation, UIC2 staining, cDNA-PCR); type: cell-based
Protocol: KG1 cell line was maintained in Iscove's modified Dulbecco medium with 20% fetal calf serum (FCS) and 2 mM L-glutamine, 100 units/mL penicillin and 100 μg/mL streptomycin (GIBCO Laboratories, Grand Island, N.Y.).
(§2) PBL were treated with 1 ng/mL TPA; H9 and K562 cells with 10 ng/mL TPA; KG1a and KG1 cells with 100 ng/mL TPA and the other cell lines with 10 ng/mL TPA.
Mouse IgG2a isotype control antibody was obtained from Sigma. For staining of PBL with UIC2 mAb or isotype control, 10^6 cells were stained at 4° C. with 10 μg of the antibody for 30 minutes and, after two washes, stained for 30 minutes with 10 μg of FITC-conjugated goat anti-mouse IgG2a antibody (Fisher Scientific, Fairlawn, N.J.), diluted 1:2 with PBS plus 2% FCS. Cells were then washed twice with ice-cold PBS plus 2% FCS, stained with PI and kept on ice until analysis. Essentially the same protocol was used for staining of other cell types except that 2 μg of the secondary antibody were used per 10^6 cells. In some experiments, phycoerythrine (PE)-conjugated goat anti-mouse IgG2a was used as the secondary antibody; no PI was added in such cases.
(§3) (Commercially-available kits (for example, from GIBCO/BRL, Gaithersburg, Md.) can be advantageously modified for making cDNA using random hexamers.) PCR is then performed using the following primers: […]
(§4) (where β2 M represents β2 microglobulin). PCR was performed for β2 M experiments under a regime consisting of 1 cycle comprising denaturation at 94° C. for 3 minutes, primer annealing at 60° C. for 30 seconds, and primer extension at 72° C. for 1 minute, followed by 19 cycles comprising denaturation at 94° C. for 30 seconds, primer annealing at 60° C. for 30 seconds, and primer extension at 72° C. for 1 minute, followed by a final cycle comprising denaturation at 94° C. for 30 seconds, primer annealing at 60° C. for 30 seconds, and primer extension at 72° C. for 5 minutes. MDR1 cDNA sequences were amplified using the identical protocol as for β2 M, but extending the amplification from 19 cycles to 25 cycles. In addition, the cDNA-PCR amplification protocol contained the following modifications: (i) Taq DNA polymerase was added to the PCR mixtures after initial heating of the samples to 94° C. (ii) The yield of the β2 -microglobulin-specific band, obtained after 22-28 cycles of PCR, was used as the primary criterion for equalizing the starting amounts of the cDNA templates in different preparations, in order to account for differential RNA degradation in cells subjected to different types of treatment. ^32 P-labeled PCR products were detected by autoradiography.
A functional assay was used to detect changes in P-glycoprotein activity in human PBL treated with different agents that induce lymphoid differentiation or activation, based on flow cytometric analysis of cellular accumulation of Rh123, which is a P-glycoprotein-transported fluorescent mitochondrial dye. In this assay, cells expressing little or no P-glycoprotein stain brightly with Rh123, whereas cells with higher levels of P-glycoprotein activity appear Rh123-dull. […] Since the best-known cellular effect of TPA is the stimulation of PKC, DOG (a cell-permeable diacylglycerol and a physiological stimulant of PKC) was also tested to determine its effects on Rh123 accumulation in PBL.

[5] = system: MDR1 expression (P-glycoprotein); experiment: MDR1/P-glycoprotein expression in mouse hematopoietic cell lines; type: cell-based
Protocol: as §2
Since PBL comprise a heterogeneous population of many different subtypes, a series of leukemia-derived clonal cells lines were tested for changes in P-glycoprotein expression after treatment with TPA.

MDR1 expression [6] = experiment: Inhibition of TPA- or DOG-induced MDR1 expression; type: cell-based, human; details: staurosporine 30 nM
Protocol: as §2, §1

MRP expression = experiment: Inhibition of MRP mRNA expression in H-9 cells (cDNA-PCR); type: cell-based, human; details: 100 nM
Protocol: Cells were plated in 6-well Falcon tissue culture plates at 3,300 cells per well, and incubated in the appropriate concentrations of drugs. Each of the protein kinase inhibitors to be tested were added at their appropriate final concentrations, and the cells then incubated for 10 hours at 37° C. under an atmosphere of 5% CO2.
PCR was performed using the following primers: […]
(where β2 M represents β2 microglobulin). PCR was performed for β2 M experiments under a regime consisting of 1 cycle comprising denaturation at 94° C. for 3 minutes, primer annealing at 60° C. for 30 seconds, and primer extension at 72° C. for 1 minute, followed by 19 cycles comprising denaturation at 94° C. for 30 seconds, primer annealing at 60° C. for 30 seconds, and primer extension at 72° C. for 1 minute, followed by a final cycle comprising denaturation at 94° C. for 30 seconds, primer annealing at 60° C. for 30 seconds, and primer extension at 72° C. for 5 minutes.
H-9 cells were used to analyze the effect of various protein kinase inhibitors on the expression of the multidrug resistance associated protein MRP (Grant et al., ibid.).

MDR1 expression [7] = experiment: Induction of MDR1 expression by agents that increase intracellular Ca2+; type: cell-based, human; details: H9 cells; 10 μg/mL, 10 hrs
Protocol: H9 cells were seeded into each well of 6-well plates (10^5 cells/well in 3 mL of RPMI-1640 medium/10% fetal bovine serum/2 mM L-glutamine/100 U/mL penicillin and 100 μg/mL streptomycin). Experimental cultures were treated with either the calcium-specific ionophore A23187 or an inhibitor of Ca^2+ -dependent ATPase, thapsigargin. Cells were incubated with 10 μM A23187 or 10 μg/mL thapsigargin for 10 hrs at 37° C., 5% CO2 in a humidified atmosphere. Negative control cultures were incubated as above without the addition of either A23187 or thapsigargin.
After each incubation was complete, steady-state levels of MDR1- and β2 -microglobulin mRNA (internal standard) were determined by RT-PCR as described above in Example 4. PCR products were then analyzed in 7.5% polyacrylamide gel electrophoresis and autoradiographed. […] The absence of the MDR1-specific band and presence of the β2 -microglobulin specific band was consistent with the results on uninduced H9 cells shown above in Examples 4 and 5 and FIGS. 7A through 7F.

[8] = system: MDR1 expression (P-glycoprotein); experiment: Induction of MDR1 expression by cytotoxic drugs (dye efflux, UIC2, cDNA-PCR); type: cell-based, human
Protocol: as §3, §4
In particular PKC is activated by treatment with Ara-C. Therefore, experiments were performed to test whether Ara-C, which is not transported by P-glycoprotein, would have any effect on P-glycoprotein function in K562 leukemia cells.
(§5) Also assayed was whether drug-induced MDR1 expression was maintained after cytotoxic drug treatment. […] At different times, MDR1 expression in the surviving cells was analyzed by dye efflux and immunofluorescence labeling with UIC2 (FIG. 3C) or by cDNA-PCR (FIG. 4E).

K562 cells = system: K562 cells
Protocol: FIG. 6A. Growth inhibition by vinblastine in untreated and Ara-C (ARA)- or Adriamycin (ADR)-treated cells. Cells were treated as in FIG. 3C and grown in the absence of drugs for six weeks. Vinblastine inhibition assay was carried out for 10 days.
FIG. 6B. Growth inhibition by vinblastine in untreated cells and Rh123-dull and Rh123-bright populations of Ara-C treated cells. […] One week after sorting, vinblastine inhibition assay was carried out for 7 days.
Cells were plated in duplicate in 96-well microtiter plates at 3,000 cells per well, and allowed to grow in increasing concentrations of different drugs.
as §5

## CCN(CC)CCN1C(=O)c2c(c3c4cccc(Cl)c4n([C@@H]4O[C@H](CO)[C@@H](OC)[C@H](O)[C@H]4O)c3c3[nH]c4c(Cl)cccc4c23)C1=O [BMY 27557, 8-N-(diethylaminoethyl) rebeccamycin]
Tumor [1]; nine injections at 12 mg/kg/injection
  optimal total i.p. dose: 108 mg/kg
Tumor [1]; single dose
  optimal single i.p. dose: 64 mg/kg

## CO[C@@H]1[C@H](N(C)C(=O)c2ccccc2)C[C@H]2O[C@]1(C)n1c3ccccc3c3c4c(c5c6ccccc6n2c5c31)C(=O)NC4 [CGP 41 251]
Tumor [2]
  dose showing anti-tumor effect relative to MTD: anti-tumor effect at one-tenth of their maximum tolerated doses

## N=C(N)NCCNS(=O)(=O)c1cccc2cnccc12 [HA1004]
MDR1 expression [3]
  inhibition of MDR1 induction by cytotoxic drugs: totally ineffective
PKC
  PKC inhibition: inactive against PKC

## CCCCCCCCCCCCCC(=O)O[C@@H]1[C@@H](C)[C@@]2(O)[C@@H](C=C(CO)C[C@]3(O)C(=O)C(C)=C[C@@H]23)[C@@H]2C(C)(C)[C@]12OC(C)=O [TPA, 12-o-tetradecanoylphorbol-13-acetate]
[4]; EJ bladder carcinoma cells
  increase of MDR1 expression after treatment: increase of MDR1 expression
[4]; H9 cells
  induction of MDR1 mRNA and P-glycoprotein: efficiently induced readily detectable levels of MDR1 expression
[4]; KG1 and KG1a cells (P-glycoprotein positive)
  P-glycoprotein expression after exposure: large increase in their P-glycoprotein expression
[4]; MCF-7 breast carcinoma cells
  increase of MDR1 expression after treatment: increase of MDR1 expression
[4]; human PBL
  levels of P-glycoprotein on the cell surface (UIC2): markedly increased the levels of P-glycoprotein on the cell surface
[4]; normal human PBL and leukemia/solid tumor cell lines
  MDR1 gene expression: increase MDR1 gene expression
[5]; and LBRM 33 lymphoma
  P-glycoprotein expression after exposure: large increase in their P-glycoprotein expression

## CN[C@@H]1C[C@H]2O[C@@](C)([C@@H]1OC)n1c3ccccc3c3c4c(c5c6ccccc6n2c5c31)C(=O)NC4 [staurosporine]
MDR1 expression [6]; H9 cells / P-glycoprotein-negative cells
  inhibition of DOG (diacylglycerol)-induced MDR1 expression: completely abolished MDR1 induction; also recorded: prevent MDR1 induction
MDR1 expression [6]; H9 cells
  inhibition of TPA-induced MDR1 expression: completely abolished MDR1 induction; also recorded: completely inhibited TPA-induced MDR1 expression; also recorded: prevent MDR1 induction
MDR1 expression [3]
  prevention of MDR1 induction by chemotherapeutic drugs: prevent MDR1 induction
MDR1 expression [3]; concentration not stated
  inhibition of MDR1 induction by cytotoxic drugs: capable of inhibiting MDR1 induction by cytotoxic drugs
MRP expression
  MRP expression: capable of inhibiting MRP expression; also recorded: strongly inhibited
[4]; KG1, KG1a (P-glycoprotein positive)
  P-glycoprotein expression, compound alone: significant increase in P-glycoprotein expression
[4]; P-glycoprotein-negative H9 cells
  induction of MDR1 expression, compound alone: did not induce MDR1 expression
[4]; some P-glycoprotein-positive cell lines (human; mouse lines also used)
  P-glycoprotein expression: significantly increased P-glycoprotein expression
[5]; mouse EL4 and LBRM 33 (P-glycoprotein positive)
  P-glycoprotein expression, compound alone: significant increase in P-glycoprotein expression

## C/C=C(/C)C(=O)O[C@H]1C(C)=C2[C@H]([C@@H]1OC(=O)CCCCCCC)[C@@](C)(OC(C)=O)C[C@H](OC(=O)CCC)[C@@]1(O)[C@H]2OC(=O)[C@@]1(C)O [thapsigargin]
MDR1 expression [7]
  MDR1 expression (RT-PCR): capable of inducing MDR1 gene expression; also recorded: a clear MDR1-specific band was detected

## CC[C@]1(O)C[C@@H]2CN(CCc3c([nH]c4ccccc34)[C@@](C(=O)OC)(c3cc4c(cc3OC)N(C)[C@H]3[C@@](O)(C(=O)OC)[C@H](OC(C)=O)[C@]5(CC)C=CCN6CC[C@]43[C@@H]65)C2)C1 [vinblastine]
[8]
  MDR1 induction: MDR1 induction, both at the mRNA and at the protein levels, was observed
  MDR1 mRNA expression: induce MDR1 mRNA expression
  Rh123 or DiOC2(3) efflux by treated cells: 3-10%
K562 cells
  increase in resistance: 2-3 fold
  increase in the ID10 value: 2-3 fold
